Assay results reported in patent US7888464B2, “Hepatitis C virus inhibitors” (Bristol-Myers Squibb Company, priority 2006, dated 2011).
Where two headings read alike, the source gives them in different places.

Columns and labels:
[1] = target: T1, HCV NS3/4A protease complex, BMS strain (genotype 1a) (UniProt P27958, species not given/STRAIN_BMS); test: FRET peptide assay to monitor HCV NS3/4A proteolytic activity (BMS strain); format: biochemical; settings: NS3/4A BMS strain, read-out: HCV Protease (IC50)
T1 construct: "DNA encoding the recombinant HCV NS3/4A protease complex (amino acids 1027 to 1711) for these strains" (said of H77 and J4L6S, not expressly of BMS); given for the H77/J4L6S constructs only
Source text: HCV NS3 protease complexes, derived from the BMS strain, H77 strain or J4L6S strain, were generated, as described below. These purified recombinant proteins were generated for use in a homogeneous assay (see below) to provide an indication of how effective compounds of the present disclosure would be in inhibiting HCV NS3 proteolytic activity.
Serum from an HCV-infected patient was obtained from Dr. T. Wright, San Francisco Hospital. An engineered full-length cDNA (compliment deoxyribonucleic acid) template of the HCV genome (BMS strain) was constructed from DNA fragments obtained by reverse transcription-PCR(RT-PCR) of serum RNA (ribonucleic acid) and using primers selected on the basis of homology between other genotype la strains. From the determination of the entire genome sequence, a genotype la was assigned to the HCV isolate according to the classification of Simmonds et al. (See P Simmonds, K A Rose, S Graham, S W Chan, F McOmish, B C Dow, E A Follett, P L Yap and H Marsden, J. Clin. Microbiol., 31(6), 1493-1503 (1993)). […] The infectious clones, H77 (1a genotype) and J4L6S (1b genotype) were obtained from R. Purcell (NIH) and the sequences are published in Genbank (AAB67036, see Yanagi, M., Purcell, R. H., Emerson, S. U. and Bukh, J. Proc. Natl. Acad. Sci. U.S.A. 94(16), 8738-8743 (1997); AF054247, see Yanagi, M., St Claire, M., Shapiro, M., Emerson, S. U., Purcell, R. H. and Bukh, J, Virology 244 (1), 161-172. (1998)).
The H77 and J4L6S strains were used for production of recombinant NS3/4A protease complexes. DNA encoding the recombinant HCV NS3/4A protease complex (amino acids 1027 to 1711) for these strains were manipulated as described by P. Gallinari et al. (see Gallinari P, Paolini C, Brennan D, Nardi C, Steinkuhler C, De Francesco R. Biochemistry. 38(17):5620-32, (1999)). Briefly, a three-lysine solubilizing tail was added at the 3′-end of the NS4A coding region. The cysteine in the P1 position of the NS4A-NS4B cleavage site (amino acid 1711) was changed to a glycine to avoid the proteolytic cleavage of the lysine tag. Furthermore, a cysteine to serine mutation was introduced by PCR at amino acid position 1454 to prevent the autolytic cleavage in the NS3 helicase domain. The variant DNA fragment was cloned in the pET21b bacterial expression vector (Novagen) and the NS3/4A complex was expressed in Escherichia. coli strain BL21 (DE3) (Invitrogen) following the protocol described by P. Gallinari et al. (see Gallinari P, Brennan D, Nardi C, Brunetti M, Tomei L, Steinkuhler C, De Francesco R., J. Virol. 72(8):6758-69 (1998)) with modifications. Briefly, the NS3/4A protease complex expression was induced with 0.5 millimolar (mM) Isopropyl β-D-1-thiogalactopyranoside (IPTG) for 22 hours (h) at 20° C. A typical fermentation (1 Liter (L)) yielded approximately 10 grams (g) of wet cell paste. The cells were resuspended in lysis buffer (10 mL/g) consisting of 25 mM N-(2-Hydroxyethyl)piperazine-N′-(2-Ethane Sulfonic acid) (HEPES), pH 7.5, 20% glycerol, 500 mM Sodium Chloride (NaCl), 0.5% Triton X-100, 1 microgram/milliliter (“μg/mL”) lysozyme, 5 mM Magnesium Chloride (MgCl2), 1 μg/ml DnaseI, 5 mM β-Mercaptoethanol (βME), Protease inhibitor-Ethylenediamine Tetraacetic acid (EDTA) free (Roche), homogenized and incubated for 20 minutes (min) at 4° C. The homogenate was sonicated and clarified by ultra-centrifugation at 235000 g for 1 hour (h) at 4° C. Imidazole was added to the supernatant to a final concentration of 15 mM and the pH adjusted to 8.0. The crude protein extract was loaded on a Nickel-Nitrilotriacetic acid (Ni-NTA) column pre-equilibrated with buffer B (25 mM HEPES, pH 8.0, 20% glycerol, 500 mM NaCl, 0.5% Triton X-100, 15 mM imidazole, 5 mM βME). The sample was loaded at a flow rate of 1 mL/min. The column was washed with 15 column volumes of buffer C (same as buffer B except with 0.2% Triton X-100). The protein was eluted with 5 column volumes of buffer D (same as buffer C except with 200 mM Imidazole). […]

[2] = test system: HCV replicon (strain 1b) in HUH-7 cells; test: HCV replicon FRET assay; format: cell-based; settings: Hepatitis C virus
Source text: An HCV replicon whole cell system was established as described by Lohmann V, Korner F, Koch J, Herian U, Theilmann L, Bartenschlager R., Science 285(5424): 110-3 (1999). This system enabled us to evaluate the effects of our HCV Protease compounds on HCV RNA replication. Briefly, using the HCV strain 1b sequence described in the Lohmann paper (Assession number: AJ238799), an HCV cDNA was synthesized by Operon Technologies, Inc. (Alameda, Calif.), and the full-length replicon was then assembled in plasmid pGem9zf(+) (Promega, Madison, Wis.) using standard molecular biology techniques. The replicon consists of (i) the HCV 5′ UTR fused to the first 12 amino acids of the capsid protein, (ii) the neomycin phosphotransferase gene (neo), (iii) the IRES from encephalomyocarditis virus (EMCV), and (iv) HCV NS3 to NS5B genes and the HCV 3′ UTR. Plasmid DNAs were linearized with ScaI and RNA transcripts were synthesized in vitro using the T7 MegaScript transcription kit (Ambion, Austin, Tex.) according to manufacturer's directions. In vitro transcripts of the cDNA were transfected into the human hepatoma cell line, HUH-7. […] Resulting cell lines were characterized for positive and negative strand RNA production and protein production over time.
The HCV replicon FRET assay was developed to monitor the inhibitory effects of compounds described in the disclosure on HCV viral replication. HUH-7 cells, constitutively expressing the HCV replicon, were grown in Dulbecco's Modified Eagle Media (DMEM) (Gibco-BRL) containing 10% Fetal calf serum (FCS) (Sigma) and 1 mg/ml G418 (Gibco-BRL). Cells were seeded the night before (1.5×10^4 cells/well) in 96-well tissue-culture sterile plates. Compound and no compound controls were prepared in DMEM containing 4% FCS, 1:100 Penicillin/Streptomysin (Gibco-BRL), 1:100 L-glutamine and 5% DMSO in the dilution plate (0.5% DMSO final concentration in the assay). Compound/DMSO mixes were added to the cells and incubated for 4 days at 37° C. After 4 days, cells were first assessed for cytotoxicity using alamar Blue (Trek Diagnotstic Systems) for a CC50 reading. The toxicity of compound (CC50) was determined by adding 1/10th volume of alamar Blue to the media incubating the cells. After 4 h, the fluorescence signal from each well was read, with an excitation wavelength at 530 nm and an emission wavelength of 580 nm, using the Cytofluor Series 4000 (Perspective Biosystems). Plates were then rinsed thoroughly with Phosphate-Buffered Saline (PBS) (3 times 150 μl). The cells were lysed with 25 μl of a lysis assay reagent containing an HCV protease substrate (5× cell Luciferase cell culture lysis reagent (Promega #E153A) diluted to 1× with distilled water, NaCl added to 150 mM final, the FRET peptide substrate (as described for the enzyme assay above) diluted to 10 μM final from a 2 mM stock in 100% DMSO. The plate was then placed into the Cytofluor 4000 instrument which had been set to 340 nm excitation/490 nm emission, automatic mode for 21 cycles and the plate read in a kinetic mode. EC50 determinations were carried out as described for the IC50 determinations.

[3] = activity range symbols of Table 2
[4] = Huh-7, read-out: HCV Pro Replicon (EC50)

T1 sequence (P27958 1027-1657, stated change not applied, one chain of several): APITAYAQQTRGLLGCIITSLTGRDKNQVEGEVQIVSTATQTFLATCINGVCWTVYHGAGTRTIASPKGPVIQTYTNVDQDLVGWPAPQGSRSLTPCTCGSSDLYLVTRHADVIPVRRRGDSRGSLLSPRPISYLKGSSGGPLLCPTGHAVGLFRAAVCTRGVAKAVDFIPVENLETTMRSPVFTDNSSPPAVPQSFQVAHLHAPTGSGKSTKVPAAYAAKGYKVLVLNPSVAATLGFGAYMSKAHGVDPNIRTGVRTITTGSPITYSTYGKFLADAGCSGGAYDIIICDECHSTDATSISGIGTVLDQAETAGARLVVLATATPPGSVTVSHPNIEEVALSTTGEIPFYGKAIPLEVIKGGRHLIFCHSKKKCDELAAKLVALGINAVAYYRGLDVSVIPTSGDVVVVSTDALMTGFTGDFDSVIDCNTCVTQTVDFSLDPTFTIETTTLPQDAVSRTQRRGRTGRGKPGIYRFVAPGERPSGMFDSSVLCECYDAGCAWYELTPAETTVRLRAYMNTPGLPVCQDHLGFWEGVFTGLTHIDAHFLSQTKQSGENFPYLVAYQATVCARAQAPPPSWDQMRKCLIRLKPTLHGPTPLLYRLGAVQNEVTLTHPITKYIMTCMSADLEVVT

Compound	IC50 ([1]; numeric cells of Table 2) [nM]	EC50 ([2]; Huh-7, HCV replicon, numeric cells of Table 2, read-out: HCV Pro Replicon (EC50)) [nM]	IC50 [1, 3] [nM]	EC50 [2, 4] [nM]
C=C[C@@H]1C[C@]1(NC(=O)[C@@H]1C[C@@](OC)(c2ccc(-c3ccccc3)cc2)CN1C(=O)[C@@H](NC(=O)OC(C)(C)C)C(C)(C)C)C(=O)NS(=O)(=O)C1CC1 [Cmpd 106, tert-butyl (S)-1-((2S,4R)-4-(biphenyl-4-yl)-2-((1R,2S)-1-(cyclopropylsulfonylcarbamoyl)-2-vinylcyclopropylcarbamoyl)-4-methoxypyrrolidin-1-yl)-3,3-dimethyl-1-oxobutan-2-ylcarbamate]	1	11	–	–
C=C[C@@H]1C[C@]1(NC(=O)[C@@H]1C[C@@](OC)(c2ccc(-c3ccccc3)cc2)CN1C(=O)[C@H](Nc1ccc(F)c(F)c1)C(C)(C)C)C(=O)NS(=O)(=O)C1CC1 [Cmpd 210, (2S,4R)-4-Biphenyl-4-yl-1-[(R)-2-(3,4-difluoro-phenylamino)-3,3-dimethyl-butyryl]-4-methoxy-pyrrolidine-2-carboxylic acid ((1R,2S)-1-cyclopropanesulfonylaminocarbonyl-2-vinyl-cyclopropyl)-amide]	–	–	> 500	> 500
C=C[C@@H]1C[C@]1(NC(=O)[C@@H]1C[C@@](OC)(c2ccc(-c3ccccc3)cc2)CN1C(=O)[C@@H](NC(=O)OC(C)(C)C)C(C)C)C(=O)NS(=O)(=O)C1CC1 [Cmpd 201, {(S)-1-[(2S,4R)-4-Biphenyl-4-yl-2-((S)-(1R,2S)-1-cyclopropanesulfonylaminocarbonyl-2-vinyl-cyclopropylcarbamoyl)-4-methoxy-pyrrolidine-1-carbonyl]-2-methyl-propyl}-carbamic acid tert-butyl ester]	–	–	1 to 50	50 to 500
C=C[C@@H]1C[C@]1(NC(=O)[C@@H]1C[C@@](OC)(c2ccc(-c3ccccc3)cc2)CN1C(=O)[C@@H](NC(=O)OC(C)(C)C(F)(F)F)C(C)(C)C)C(=O)NS(=O)(=O)C1CC1 [Cmpd 200, {(S)-1-[(2S,4R)-4-Biphenyl-4-yl-2-((S)-(1R,2S)-1-cyclopropanesulfonylaminocarbonyl-2-vinyl-cyclopropylcarbamoyl)-4-methoxy-pyrrolidine-1-carbonyl]-2,2-dimethyl-propyl}-carbamic acid 2,2,2-trifluoro-1,1-dimethyl-ethyl ester]	–	–	1 to 50	1 to 50
C=C[C@@H]1C[C@]1(NC(=O)[C@@H]1C[C@@](OC)(c2ccc(-c3ccccc3)cc2)CN1C(=O)[C@@H](Nc1ccc(F)c(F)c1)C(C)(C)C)C(=O)NS(=O)(=O)C1CC1 [Cmpd 209, (2S,4R)-4-Biphenyl-4-yl-1-[(S)-2-(3,4-difluoro-phenylamino)-3,3-dimethyl-butyryl]-4-methoxy-pyrrolidine-2-carboxylic acid ((1R,2 S)-1-cyclopropanesulfonylaminocarbonyl-2-vinyl-cyclopropyl)-amide]	–	–	1 to 50	1 to 50
C=C[C@@H]1C[C@]1(NC(=O)[C@@H]1C[C@@](OCc2ccccc2)(c2ccc(-c3ccccc3)cc2)CN1C(=O)[C@@H](NC(=O)OC(C)(C)C)C(C)(C)C)C(=O)NS(=O)(=O)C1CC1 [Cmpd 108]	–	–	1 to 50	1 to 50
C=C[C@@H]1C[C@]1(NC(=O)[C@@H]1C[C@@](OC)(c2ccc(-c3ccccc3)cc2)CN1C(=O)[C@@H](NC(=O)NC(C)(C)C)C(C)(C)C)C(=O)NS(=O)(=O)C1CC1 [Cmpd 206, (2S,4R)-4-Biphenyl-4-yl-1-[(S)-2-(3-tert-butyl-ureido)-3,3-dimethyl-butyryl]-4-methoxy-pyrrolidine-2-carboxylic acid ((1R,2S)-1-cyclopropanesulfonylaminocarbonyl-2-vinyl-cyclopropyl)-amide]	–	–	1 to 50	1 to 50
C=C[C@@H]1C[C@]1(NC(=O)[C@@H]1C[C@@](OC)(c2ccc(-c3ccccc3)cc2)CN1C(=O)[C@@H](NC(=O)NC12CC3CC(CC(C3)C1)C2)C(C)(C)C)C(=O)NS(=O)(=O)C1CC1 [Cmpd 205, (2S,4R)-1-[(S)-2-(3-Adamantan-1-yl-ureido)-3,3-dimethyl-butyryl]-4-biphenyl-4-yl-4-methoxy-pyrrolidine-2-carboxylic acid ((1R,2S)-1-cyclopropanesulfonylaminocarbonyl-2-vinyl-cyclopropyl)-amide]	–	–	1 to 50	1 to 50
C=C[C@@H]1C[C@]1(NC(=O)[C@@H]1C[C@@](OC)(c2ccc(-c3ccccc3)cc2)CN1C(=O)[C@H](Cc1ccc(C(C)(C)C)cc1)NC(=O)OC(C)(C)C)C(=O)NS(=O)(=O)C1CC1 [Cmpd 211]	1600	–	–	–
